assay: Inhibition of recombinant human Inositol 3,4,5,6 tetrakisphosphate 1-kinase using [3H]Ins(3,4,5,6)[…] as substrate

IC50 [µM]	SMILES
~4	O=P(O)(O)O[C@H]1[C@H](O)[C@@H](O)[C@H](OP(=O)(O)O)[C@@H](OP(=O)(O)O)[C@H]1O
≥ 300	O=P(O)(O)O[C@@H]1[C@@H](O)[C@H](O)[C@@H](OP(=O)(O)O)[C@@H](OP(=O)(O)O)[C@H]1O
~9	O=P(O)(O)O[C@H]1[C@H](O)[C@@H](O)[C@H](OP(=O)(O)O)[C@H](OP(=O)(O)O)[C@@H]1O
